Assays:
[1] = Solubility of verteporfin derivative compounds in water and buffer (pH = 2); assay type: physicochemical; conditions: for Buffer (pH = 2) result, fraction dissolved / Buffer (pH = 2) result: phosphate buffer pH = 2; for Water result: at the amount per volume in mg/mL
[2] = tested on: mouse medulloblastoma cells; assay: IC50 / viability (Cell Titer Blue) in mouse medulloblastoma tumorsphere cell line; assay type: cell-based; conditions: FIGS. 9-11
Method: Uptake was calculated by measuring relative fluorescence in two different primary medulloblastoma cell lines. Absorbance measurements were normalized to t=0 with drugs in the well, the drugs were washed out 30 minutes later, and absorbance was measured again. FIG. 9B) IC50 in a mouse medulloblastoma tumorsphere cell line treated with verteporfin or a verteporfin derivative compound (T10, T11, T13, T14, or T15). DMSO was used as a control.
Primary cells from spontaneous mouse medulloblastoma ([…];p53^−/− or FSMO;GFAPcre) and MED311 PDX model were isolated and cultured in serum-free stem cell medium (DMEM/F12, B27, pen/strep, bFGF9 10 nanograms per milliliter (ng/mL)), and EGF (20 ng/mL). Number of self-renewing stem cells in vitro were measured by plating single cells at a clonal density (<1 cell/μL) and counting spheres >100 μM 7 days later. To establish IC50 values, 3000 mouse medulloblastoma cells were plated in 96 wells and treated varying concentrations of verteporfin and new derivatives were synthesized, in triplicate, and viability was measured using Cell Titer Blue assay (Promega, Madison, Wis.) 3 days after drug treatment.

C=Cc1c(C)c2cc3nc(cc4[nH]c(cc5nc(cc1[nH]2)C(C)=C5CCC(=O)N[C@@H](CC(=O)O)C(=O)O)c(CCC(=O)OC)c4C)[C@@]1(C)C3=CC=C(C(=O)OC)[C@H]1C(=O)OC [Compound T1, (2S)-2-[3-[(23 S,24R)-14-ethenyl-5-(3-methoxy-3-oxopropyl)-22,23-bis(methoxycarbonyl)-4,10,15,24-tetramethyl-25,26,27,28-tetraazahexacyclo[16.6.1.13,6.18,11.113,16.019,24]octacosa-1,3,5,7,9,11(27),12,14,16,18(25), 19,21-dodecaen-9-yl]propanoylamino]butanedioic acid]
Buffer (pH = 2) result, fraction dissolved [1]: ~20% | Water result [1]: insoluble

C=Cc1c(C)c2cc3nc(cc4[nH]c(cc5nc(cc1[nH]2)C(C)=C5CCC(=O)N[C@@H](CC(=O)O)C(=O)O)c(CCC(=O)N[C@@H](CC(=O)O)C(=O)O)c4C)[C@@]1(C)C3=CC=C(C(=O)OC)[C@H]1C(=O)OC [Compound T3, (2S)-2-[3-[(23 S,24R)-14-ethenyl-5-[3-[[(1 S)-1,2-dicarboxyethyl]amino]-3-oxo-propyl]-22,23-bis(methoxycarbonyl)-4,10,15,24-tetramethyl-25,26,27,28-tetraazahexacyclo[16.6.1.13,6.18,11.113,16.019,24]octacosa-1,3,5,7,9,11(27),12,14,16,18(25), 19,21-dodecaen-9-yl]propanoylamino]butanedioic acid]
Buffer (pH = 2) result [1]: insoluble | Water result [1]: insoluble

C=Cc1c(C)c2cc3nc(cc4[nH]c(cc5nc(cc1[nH]2)C(C)=C5CCC(=O)NCCC(=O)N[C@@H](CC(=O)O)C(=O)O)c(CCC(=O)OC)c4C)[C@@]1(C)C3=CC=C(C(=O)OC)[C@H]1C(=O)OC [Compound T4, (2S)-2-[3-[3-[(23 S,24R)-14-ethenyl-5-(3-methoxy-3-oxopropyl)-22,23-bis(methoxycarbonyl)-4,10,15,24-tetramethyl-25,26,27,28-tetraazahexacyclo[16.6.1.13,6.18,11.113,16.019,24]octacosa-1,3,5,7,9,11(27),12,14,16,18(25), 19,21-dodecaen-9-yl]propanoylamino]propanoylamino]butanedioic acid]
Buffer (pH = 2) result, fraction dissolved [1]: ~80% | Water result [1]: insoluble

C=Cc1c(C)c2cc3nc(cc4[nH]c(cc5nc(cc1[nH]2)C(C)=C5CCC(=O)NCCCC[C@H](N)C(=O)O)c(CCC(=O)OC)c4C)[C@@]1(C)C3=CC=C(C(=O)OC)[C@H]1C(=O)OC [Compound T5, (2S)-2-amino-6-[3-[(23 S,24R)-14-ethenyl-5-(3-methoxy-3-oxopropyl)-22,23-bis(methoxycarbonyl)-4,10,15,24-tetramethyl-25,26,27,28-tetraazahexacyclo[16.6.1.13,6.18,11.113,16.019,24]octacosa-1,3,5,7,9,11(27),12,14,16,18(25), 19,21-dodecaen-9-yl]propanoylamino]hexanoic acid]
Buffer (pH = 2) result [1]: soluble | Water result [1]: soluble

C=Cc1c(C)c2cc3nc(cc4[nH]c(cc5nc(cc1[nH]2)C(C)=C5CCC(=O)NCCCC[C@H](N)C(=O)O)c(CCC(=O)NCCCC[C@H](N)C(=O)O)c4C)[C@@]1(C)C3=CC=C(C(=O)OC)[C@H]1C(=O)OC [Compound T7, (2S)-2-amino-6-[3-[(23 S,24R)-14-ethenyl-5-[3-[[(5 S)-5-amino-5-carboxy-pentyl]amino]-3-oxo-propyl]-22,23-bis(methoxycarbonyl)-4,10,15,24-tetramethyl-25,26,27,28-tetraazahexacyclo[16.6.1.13,6.18,11.113,16.019,24]octacosa-1,3,5,7,9,11(27),12,14,16,18(25), 19,21-dodecaen-9-yl]propanoylamino]hexanoic acid]
Buffer (pH = 2) result [1]: soluble | Water result [1]: soluble

C=Cc1c(C)c2cc3nc(cc4[nH]c(cc5nc(cc1[nH]2)C(C)=C5CCC(=O)OCCOCCOCCOC)c(CCC(=O)OC)c4C)[C@@]1(C)C3=CC=C(C(=O)OC)[C@H]1C(=O)OC [Compound T8, Methyl 3-[(23S,24R)-14-ethenyl-9-[3-[2-[2-(2-methoxyethoxy)ethoxy]ethoxy]-3-oxo-propyl]-22,23-bis(methoxycarbonyl)-4,10,15,24-tetramethyl-25,26,27,28-tetraazahexacyclo[16.6.1.13,6.18,11.113,16.019,24]octacosa-1,3,5,7,9,11(27),12,14,16,18(25), 19,21-dodecaen-5-yl]propanoate]
Buffer (pH = 2) result [1]: insoluble | Water result [1]: insoluble

C=Cc1c(C)c2cc3nc(cc4[nH]c(cc5nc(cc1[nH]2)C(C)=C5CCC(=O)OCCOCCOCCOC)c(CCC(=O)OCCOCCOCCOC)c4C)[C@@]1(C)C3=CC=C(C(=O)OC)[C@H]1C(=O)OC [Compound T9, 2-[2-(2-methoxyethoxy)ethoxy]ethyl 3-[(23 S,24R)-14-ethenyl-5-[3-[2-[2-(2-methoxyethoxy)ethoxy]ethoxy]-3-oxo-propyl]-22,23-bis(methoxycarbonyl)-4,10,15,24-tetramethyl-25,26,27,28-tetraazahexacyclo[16.6.1.13,6.18,11.113,16.019,24]octacosa-1,3,5,7,9,11(27),12,14,16,18(25), 19,21-dodecaen-9-yl]propanoate]
solubility compared to VP [1]: decreased solubility | activity / potency compared to VP [2]: decreased solubility and activity

C=Cc1c(C)c2cc3nc(cc4[nH]c(cc5nc(cc1[nH]2)C(C)=C5CCC(=O)OCCOCCOCCOCCOCCOCCOCCOC)c(CCC(=O)OC)c4C)[C@@]1(C)C3=CC=C(C(=O)OC)[C@H]1C(=O)OC [Compound T10, Methyl 3-[(23S,24R)-14-ethenyl-9-[3-[2-[2-[2-[2-[2-[2-(2-methoxyethoxy)ethoxy]ethoxy]ethoxy]ethoxy]ethoxy]ethoxy]-3-oxo-propyl]-22,23-bis(methoxycarbonyl)-4,10,15,24-tetramethyl-25,26,27,28-tetraazahexacyclo[16.6.1.13,6.18,11.113,16.019,24]octacosa-1,3,5,7,9,11(27),12,14,16,18(25), 19,21-dodecaen-5-yl]propanoate]
Buffer (pH = 2) result [1]: insoluble | Water result [1]: insoluble

C=Cc1c(C)c2cc3nc(cc4[nH]c(cc5nc(cc1[nH]2)C(C)=C5CCC(=O)NCCN(C)C)c(CCC(=O)OC)c4C)[C@@]1(C)C3=CC=C(C(=O)OC)[C@H]1C(=O)OC [Compound T11, Methyl 3-[(23 S,24R)-14-ethenyl-9-[3-[2-(dimethylamino)ethylamino]-3-oxo-propyl]-22,23-bis(methoxycarbonyl)-4,10,15,24-tetramethyl-25,26,27,28-tetraazahexacyclo[16.6.1.13,6.18,11.113,16.019,24]octacosa-1,3,5,7,9,11(27), 12,14,16,18(25), 19,21-dodecaen-5-yl]propanoate]
Buffer (pH = 2) result, fraction dissolved [1]: ~70% | Water result [1]: insoluble

C=Cc1c(C)c2cc3nc(cc4[nH]c(cc5nc(cc1[nH]2)C(C)=C5CCC(=O)NCCN(C)C)c(CCC(=O)NCCN(C)C)c4C)[C@@]1(C)C3=CC=C(C(=O)OC)[C@H]1C(=O)OC [Compound T13, N-[2-(dimethylamino)ethyl]-3-[(23 S,24R)-14-ethenyl-5-[3-[2-(dimethylamino)ethylamino]-3-oxo-propyl]-22,23-bis(methoxycarbonyl)-4,10,15,24-tetramethyl-25,26,27,28-tetraazahexacyclo[16.6.1.13,6.18,11.113,16.019,24]octacosa-1,3,5,7,9,11(27), 12,14,16,18(25), 19,21-dodecaen-9-yl]propanamide]
solubility compared to VP [1]: more soluble | activity / potency compared to VP [2]: more soluble and potent than VP

C=Cc1c(C)c2cc3nc(cc4[nH]c(cc5nc(cc1[nH]2)C(C)=C5CCC(=O)N(C)CCN(C)C)c(CCC(=O)OC)c4C)[C@@]1(C)C3=CC=C(C(=O)OC)[C@H]1C(=O)OC [Compound T14, Methyl 3-[(23S,24R)-14-ethenyl-9-[3-[2-(dimethylamino)ethyl-methyl-amino]-3-oxo-propyl]-22,23-bis(methoxycarbonyl)-4,10,15,24-tetramethyl-25,26,27,28-tetraazahexacyclo[16.6.1.13,6.18,11.113,16.019,24]octacosa-1,3,5,7,9,11(27), 12,14,16,18(25), 19,21-dodecaen-5-yl]propanoate]
Buffer (pH = 2) result [1]: soluble | Water result [1]: insoluble

C=Cc1c(C)c2cc3nc(cc4[nH]c(cc5nc(cc1[nH]2)C(C)=C5CCC(=O)N(C)CCN(C)C)c(CCC(=O)N(C)CCN(C)C)c4C)[C@@]1(C)C3=CC=C(C(=O)OC)[C@H]1C(=O)OC [Compound T15, N-[2-(dimethylamino)ethyl]-3-[(23 S,24R)-14-ethenyl-5-[3-[2-(dimethylamino)ethyl-methyl-amino]-3-oxo-propyl]-22,23-bis(methoxycarbonyl)-4,10,15,24-tetramethyl-25,26,27,28-tetraazahexacyclo[16.6.1.13,6.18,11.113,16.019,24]octacosa-1,3,5,7,9,11(27), 12,14,16,18(25),19,21-dodecaen-9-yl]-N-methyl-propanamide]
Buffer (pH = 2) result [1]: soluble | Water result [1]: soluble

— US11331304B2, “YAP1 inhibitors and methods” (The Jackson Laboratory, priority 2016, dated 2022)
